This is an account of results in patent US20260242365A1, “USES OF CERTAIN 1,4-OXAZEPANE-2-CARBOXAMIDES AS DPP1 INHIBITORS” (Insmed Incorporated, priority 2023, published 2026).

As usually defined, the IC50 is the midpoint of a concentration-inhibition curve.

In one experiment the target is T1, mouse DPP1 (Mus musculus, UniProt P97821).
T1 construct: Test articles were applied to active mouse DPP1 enzyme; purchased R&D Systems
As to the kind of experiment: Mouse DPP1 Enzyme IC50 Assay. The class given is biochemical. The settings on record: active mouse DPP1 enzyme, H-Gly-Arg-AMC substrate. The procedure:
Test articles were applied to active mouse DPP1 enzyme (R&D Systems; Minneapolis, MN) in Assay Buffer (50 mM MES pH 5.5, 50 mM NaCl, 5 mM DTT) in a total reaction volume of 125 μL. 25 μL of compound in Assay Buffer plus 5% DMSO was first added to 50 μL of active mouse DPP1 enzyme at a concentration of […] and allowed to pre-incubate for 10 minutes at 37° C. after which 50 μL of 1000 μM H-Gly-Arg-AMC substrate (Bachem; St. Torrance, CA) was added, giving final substrate concentration of 400 μM and a final DMSO concentration of 1%. Substrate cleavage was measured for 90 minutes at 37° C., with fluorescence at Excitation/Emission 350/450 nm measured every 5 minutes. DPP1 concentration was interpolated based on its activity relative to a standard curve of recombinant active mouse DPP1 enzyme. IC50 values for each compound were calculated via the XLFit (IDBS Version 5.3.1.3) Add-On to Microsoft Excel using the four parameter fit equation y= (A+ ((B−A)/(1+ ((C/x)^D)))), which appears as equation number 205 (4 Parameter Logistic Model or Sigmoidal Dose-Response Model) in XLFit. Default constraints were used for each Parameter. IC50 was defined as the compound concentration at which 50% of enzyme activity was inhibited when compared to the no-compound control.

For a further experiment, the target named is T2, DPP1 in HL-60 cells (Homo sapiens, UniProt P53634).
T2 construct: HL-60 cells (ATCC; host or cells: HL-60
Nature of the experiment: DPP1 Cell IC50 Assay. It is filed as cell-based. Particulars: H-Gly-Phe-AFC substrate. The procedure: HL-60 cells (ATCC; Manassas, VA) were maintained in RPMI-1640 supplemented with 20% heat-inactivated FBS and 1X Antibiotic Antimycotic (Cytiva; Marlborough, MA). Media was changed every three to four days and cells were not allowed to exceed 1×10^6 cells per mL. Prior to assay, cells were collected by centrifugation at 500 rcf for 3 minutes, resuspended in RPMI and counted. Cells were diluted in RPMI to a concentration of 5×10^5 live cells per mL and transferred to black 96-well plates for assay, 60 μL per well. Test articles were diluted in RPMI plus 0.5% DMSO, and 20 μL was added to each assay well. Compound was allowed to pre-incubate with cells with gentle shaking at 100 rpm for 60 minutes at 37° C. in a cell culture incubator maintained at 5% CO2, after which 20 μL of 500 μM H-Gly-Phe-AFC substrate (MP Biomedicals; Solon, OH) in RPMI was added to each well. Plates were returned to the incubator with shaking at 100 rpm for 30 minutes, after which fluorescence was measured at Excitation/Emission 400/505 nm. Percent (%) Inhibition was calculated from RFU values compared to control cell wells that received only RPMI plus 0.5% DMSO. IC50 values for each compound were calculated via the XLFit (IDBS Version 5.3.1.3) Add-On to Microsoft Excel using the four parameter fit equation y=(A+ ((B−A)/(1+ ((C/x)^D)))), which appears as equation number 205 (4 Parameter Logistic Model or Sigmoidal Dose-Response Model) in XLFit.

T2 sequence (P53634 25-463): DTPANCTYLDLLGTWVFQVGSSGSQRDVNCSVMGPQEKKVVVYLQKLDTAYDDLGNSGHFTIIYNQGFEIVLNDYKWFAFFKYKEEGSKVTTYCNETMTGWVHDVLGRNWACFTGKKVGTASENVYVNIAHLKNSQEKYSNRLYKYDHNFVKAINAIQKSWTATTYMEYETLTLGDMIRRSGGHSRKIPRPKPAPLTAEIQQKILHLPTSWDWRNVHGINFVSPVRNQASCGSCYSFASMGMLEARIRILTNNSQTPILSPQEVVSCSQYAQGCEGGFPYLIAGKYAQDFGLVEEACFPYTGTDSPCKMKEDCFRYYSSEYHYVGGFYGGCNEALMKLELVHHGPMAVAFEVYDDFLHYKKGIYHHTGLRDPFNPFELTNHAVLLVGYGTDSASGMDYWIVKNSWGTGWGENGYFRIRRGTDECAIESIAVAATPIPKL
T1 sequence (P97821 25-134 limits assumed): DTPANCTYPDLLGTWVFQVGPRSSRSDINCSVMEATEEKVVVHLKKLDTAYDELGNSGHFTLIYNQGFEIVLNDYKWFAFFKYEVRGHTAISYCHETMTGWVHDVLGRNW
T1 sequence (P97821 231-393 limits assumed): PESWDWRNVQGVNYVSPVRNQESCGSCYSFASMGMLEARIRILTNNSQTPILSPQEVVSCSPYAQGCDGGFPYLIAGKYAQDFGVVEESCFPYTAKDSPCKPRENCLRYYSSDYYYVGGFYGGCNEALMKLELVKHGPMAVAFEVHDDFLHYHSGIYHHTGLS
T1 sequence (P97821 394-462 limits assumed): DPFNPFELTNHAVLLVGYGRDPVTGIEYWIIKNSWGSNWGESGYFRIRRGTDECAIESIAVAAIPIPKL

In the case of `COC1CNC[C@@H](C(=O)N[C@H](C#N)Cc2ccc(-c3ccc4oc(=O)n(C)c4c3)cc2)OC1` (mixture of isomers) [INSM-202, (6-rac)-(2S)—N-[(1S)-1-cyano-2-[4-(3-methyl-2-oxo-2,3-dihydro-1,3-benzoxazol-5-yl)phenyl]ethyl]-6-methoxy-1,4-oxazepane-2-carboxamide], the IC50 on mouse DPP1 came to 0.7 ± 0.2 nM; at DPP1 in HL-60 cells, 1.1 ± 0.2 nM.
Consider `Cn1c(=O)oc2ccc(-c3ccc(C[C@@H](C#N)NC(=O)[C@@H]4CNC[C@H](O)CO4)cc3)cc21` (single isomer, unassigned) [INSM-201, (2S,6S*)—N-[(1S)-1-cyano-2-[4-(3-methyl-2-oxo-2,3-dihydro-1,3-benzoxazol-5-yl)phenyl]ethyl]-6-hydroxy-1,4-oxazepane-2-carboxamide], for which the IC50 against mouse DPP1 was determined as 2.3 ± 0.4 nM; on DPP1 in HL-60 cells, 13.4 ± 4.1 nM.
On to `COC1CNC[C@@H](C(=O)N[C@H](C#N)Cc2ccc(-c3ccc4oc(=O)n(C)c4c3)cc2)OC1` (single isomer, unassigned) [INSM-203, (2S,6R*)—N-[(1S)-1-cyano-2-[4-(3-methyl-2-oxo-2,3-dihydro-1,3-benzoxazol-5-yl)phenyl]ethyl]-6-methoxy-1,4-oxazepane-2-carboxamide], for which the IC50 on mouse DPP1 was found to be 0.3 ± 0.1 nM; at DPP1 in HL-60 cells it was 0.6 ± 0.01 nM.
